This note sets out measurements from patent publication US7045551B2 (Bristol-Myers Squibb Company, priority 2002, dated 2006).

One assay concerns the target T1, mKCNQ2 channels (Mus musculus, UniProt Q9Z351).
T1 construct: expressed in transfected cells
Kind of assay: Whole-cell patch-clamp recordings of mKCNQ2 currents. Format: cell-based. Conditions: for EC50: HEK 293 stable cell line expressing mKCNQ2, @ −40 mV, room temperature; for Imax (%): HEK 293 stable cell line expressing mKCNQ2, Imax from Hill-type curve fit. How it is done: Whole-cell patch-clamp recordings were made from an HEK 293 stable cell line expressing mKCNQ2 channels, maintained in culture for 1–2 days. Patch pipettes had initial resistances of 2.5–4 MΩ. Currents were recorded with an EPC-9 amplifier (HEKA, Lambrecht, Germany) controlled with software (Pulse, HEKA) run on a standard lab PC. Series resistance compensation was used during current recording, and set at 80%. The series resistance (R) and cell capacitance (C) were determined electronically by subtracting the capacitive currents at the onset and offset of a 5 mV voltage step. The cancellation of whole-cell capacitive transients was virtually complete in all cells. Analog current signals were low-pass filtered at 2.9 kHz using a four-pole Bessel filter −3 dB) and stored on a local network server computer at a sampling rate of […]. All recordings were performed at room temperature (20–22° C.). The pipette solution contained (mM): KCl, 150; CaCl2, 2.5; EGTA, 5; MgCl2, 1; HEPES, 10; pH to 7.3 with KOH, and Osmolality of 290–300 mOsm. The extracellular solution contained (mM): NaCl, 140; KCl, 2.5; CaCl2, 2.5; MgCl2, 1; glucose, 10; HEPES, 10; pH to 7.3 with NaOH, and Osmolality of 305–310 mOsm
Concentration response data were generated by measuring the difference in the steady-state amplitude of current in the presence of compound at the end of a 600 ms voltage-clamp step from a holding potential of −80 mV. The concentration-response data were fitted with Hill-type equations: I=Imax/(1+EC50/[A]^nH), where I is the steady-state current at a given concentration of agonist [A]; and Imax, EC50 and nH are parameters estimated from the curve fit. In some cases the concentration-response data were fitted with equations consisting of the sum of two Hill-type components. Current-voltage (I/V) relationships for agonist-evoked currents were obtained by performing 600 ms voltage steps (−110 mV to +40 mV) in the absence and presence of agonist.
On the technique in general: In patch-clamp work, channel activity is measured electrically.

The target in assay [1] is voltage-gated K+ channel KCNQ2 (Homo sapiens, UniProt O43526). Put plainly: Thallium flux assay for openers of KCNQ potassium channels. The format is cell-based. Conditions: 10 point concentration series, concentration required to yield 50% of the maximal response. An excerpt: A thallium flux assay was used to detect and characterize openers of KCNQ potassium channels. The thallium assay is generally described in International application WO 02/31508 published Apr. 18, 2002. More specifically, the thallium influx assay to detect compounds that block or open the voltage-gated K^+ channel KCNQ2 is described in Example IV of the published WO 02/31508 application.
For data analysis, the amplitude of the average of the negative controls was subtracted from all wells. The amplitudes of the test compounds were then compared to the value of four standard deviations of the negative control wells. The lowest concentration of a test compound sufficient to generate a signal amplitude greater than or equal to four standard deviations from the amplitude of the negative controls was defined as the minimal active concentration.
For generating EC50 values, compounds were serially diluted in 1:3 volume increments to produce a 10 point concentration series. EC50 values were calculated by fitting the resulting amplitudes to a single-site logistic equation. EC50 was defined as the concentration of test compound required to yield 50% of the maximal response. Maximal response (Maximal opening) was the largest signal amplitude above the negative control generated by any concentration of a test compound.

For orientation: EC50 means the concentration giving half of the maximal effect. Lower therefore signals a more potent agent. For the compound `O=C(/C=C/c1ccc(F)cc1)N[C@@H](CO)c1ccc2ccccc2c1` [Example 48, (R)-3-(4-Fluoro-phenyl)-N-(2-hy-droxy-1-naphthalen-2-yl-eth-yl)-acrylamide], on mKCNQ2 channels, the response was half-maximal at 0.619 µM (EC50) and the “Imax (%)” value came to 981%. Also, the response in assay [1] was half-maximal at 503 nM (EC50).
`O=C(/C=C/c1ccccc1)N[C@@H](CO)c1ccc2ccccc2c1` [Example 49] yielded an EC50 in assay [1] of 354 nM.
Same read-out and setting: the figure for `O=C(/C=C/c1ccccc1Cl)N[C@H](c1ccc2ccccc2c1)[C@H](O)CO` [Example 106, (1R,2S)-3-(2-Chloro-phenyl)-N-(2,3-dihydroxy-1-naph-thalen-2-yl-propyl)-acryl-amide] is 1440 nM; for `O=C(/C=C/c1ccc(F)cc1F)N[C@H](c1ccc2ccccc2c1)[C@H](O)CO` [Example 111, (1R,2S)-3-(2,4-Difluoro-phen-yl)-N-(2,3-dihydroxy-1-naph-thalen-2-yl-propyl)-acryl-amide] it is 980 nM; for `O=C(/C=C/c1ccc(F)c(F)c1)N[C@@H](CO)c1ccc2ccccc2c1` [Example 58, (R)-3-(3,4-Difluoro-phen-yl)-N-(2-hydroxy-1-naph-thalen-2-yl-ethyl)-acryl-amide] it is 892 nM.
For the compound `O=C(/C=C/c1ccc(F)cc1F)NC(CO)c1cccc(N2CCOCC2)c1` (stereo in doubt) [Example 18, (R)-3-(2,4-Difluoro-phenyl)-N-[2-hydroxy-1-(3-morpho-lin-4-yl-phen-yl)-ethyl]-acrylamide], at mKCNQ2 channels, the EC50 is 1.46 µM and the “Imax (%)” value is given as 820%.
For the compound `O=C(/C=C/c1cccc(F)c1)N[C@@H](CO)c1ccc2ccccc2c1` [Example 47, (R)-3-(3-Fluoro-phenyl)-N-(2-hy-droxy-1-naphthalen-2-yl-eth-yl)-acrylamide], a half-maximal response in assay [1] (EC50) required 39 nM.
The same measure, in the same setting: in the case of `O=C(/C=C/c1ccc(F)cc1F)N[C@@H](CO)c1ccc2ccccc2c1` [Example 55, (R)-3-(2,4-Difluoro-phen-yl)-N-(2-hydroxy-1-naph-thalen-2-yl-ethyl)-acryl-amide] it was 144 nM.
